{"source": "ChEMBL document CHEMBL1821719", "about": "“2,7-disubstituted-pyrrolo[2,1-f][1,2,4]triazines: new variant of an old template and application to the discovery of anaplastic lymphoma kinase (ALK) inhibitors with in vivo antitumor activity” (J Med Chem, 2011)", "key": {"[1]": {"biological_target": "ALK tyrosine kinase receptor (Homo sapiens, UniProt Q9UM73)", "sequence (Q9UM73 whole entry)": "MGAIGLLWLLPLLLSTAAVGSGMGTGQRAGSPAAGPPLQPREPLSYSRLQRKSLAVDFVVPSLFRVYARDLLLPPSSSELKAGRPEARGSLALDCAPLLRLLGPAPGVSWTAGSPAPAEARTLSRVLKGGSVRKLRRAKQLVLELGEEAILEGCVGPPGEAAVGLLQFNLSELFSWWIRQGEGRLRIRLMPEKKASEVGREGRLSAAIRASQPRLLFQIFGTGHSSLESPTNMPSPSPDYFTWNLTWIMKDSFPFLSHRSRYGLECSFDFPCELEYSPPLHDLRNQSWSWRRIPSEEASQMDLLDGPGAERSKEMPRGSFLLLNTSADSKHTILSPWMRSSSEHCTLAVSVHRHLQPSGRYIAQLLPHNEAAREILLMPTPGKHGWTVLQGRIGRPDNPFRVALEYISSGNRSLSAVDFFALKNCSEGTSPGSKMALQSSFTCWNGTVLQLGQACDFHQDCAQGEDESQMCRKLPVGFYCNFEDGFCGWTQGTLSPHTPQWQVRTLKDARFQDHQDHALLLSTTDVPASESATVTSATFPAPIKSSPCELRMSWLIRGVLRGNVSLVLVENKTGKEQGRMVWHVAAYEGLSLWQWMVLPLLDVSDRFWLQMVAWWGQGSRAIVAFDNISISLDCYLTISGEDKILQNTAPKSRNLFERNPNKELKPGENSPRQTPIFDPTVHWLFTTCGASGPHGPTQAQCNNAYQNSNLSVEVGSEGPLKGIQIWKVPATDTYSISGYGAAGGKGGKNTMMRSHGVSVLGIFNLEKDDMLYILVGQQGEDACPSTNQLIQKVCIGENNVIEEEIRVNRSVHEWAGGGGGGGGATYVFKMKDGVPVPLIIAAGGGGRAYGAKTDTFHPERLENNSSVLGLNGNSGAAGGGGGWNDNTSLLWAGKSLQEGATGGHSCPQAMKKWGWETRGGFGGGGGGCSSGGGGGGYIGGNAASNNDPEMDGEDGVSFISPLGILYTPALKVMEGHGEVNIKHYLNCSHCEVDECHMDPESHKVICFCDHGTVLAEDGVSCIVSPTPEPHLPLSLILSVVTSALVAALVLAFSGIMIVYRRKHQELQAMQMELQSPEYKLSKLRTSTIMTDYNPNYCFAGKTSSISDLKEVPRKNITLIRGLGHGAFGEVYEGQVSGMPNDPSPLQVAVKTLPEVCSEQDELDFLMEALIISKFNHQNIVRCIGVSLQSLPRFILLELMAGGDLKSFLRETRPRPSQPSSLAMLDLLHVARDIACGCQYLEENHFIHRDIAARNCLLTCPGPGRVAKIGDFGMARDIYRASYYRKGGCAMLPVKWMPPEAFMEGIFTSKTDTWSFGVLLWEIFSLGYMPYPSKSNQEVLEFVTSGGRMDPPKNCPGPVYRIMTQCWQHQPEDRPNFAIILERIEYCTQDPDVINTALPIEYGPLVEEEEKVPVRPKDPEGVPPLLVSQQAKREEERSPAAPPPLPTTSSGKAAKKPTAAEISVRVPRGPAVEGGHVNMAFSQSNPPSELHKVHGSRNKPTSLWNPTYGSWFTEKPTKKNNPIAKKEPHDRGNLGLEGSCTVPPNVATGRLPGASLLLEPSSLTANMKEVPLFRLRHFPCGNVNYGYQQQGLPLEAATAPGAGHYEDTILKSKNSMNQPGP", "test": "Inhibition of human recombinant ALK assessed as phosphorylated product using PLC-gamma/GST substrate by modified ELISA method"}, "Insulin receptor": {"biological_target": "Insulin receptor (Homo sapiens, UniProt P06213)", "sequence (P06213 28-758 limits assumed)": "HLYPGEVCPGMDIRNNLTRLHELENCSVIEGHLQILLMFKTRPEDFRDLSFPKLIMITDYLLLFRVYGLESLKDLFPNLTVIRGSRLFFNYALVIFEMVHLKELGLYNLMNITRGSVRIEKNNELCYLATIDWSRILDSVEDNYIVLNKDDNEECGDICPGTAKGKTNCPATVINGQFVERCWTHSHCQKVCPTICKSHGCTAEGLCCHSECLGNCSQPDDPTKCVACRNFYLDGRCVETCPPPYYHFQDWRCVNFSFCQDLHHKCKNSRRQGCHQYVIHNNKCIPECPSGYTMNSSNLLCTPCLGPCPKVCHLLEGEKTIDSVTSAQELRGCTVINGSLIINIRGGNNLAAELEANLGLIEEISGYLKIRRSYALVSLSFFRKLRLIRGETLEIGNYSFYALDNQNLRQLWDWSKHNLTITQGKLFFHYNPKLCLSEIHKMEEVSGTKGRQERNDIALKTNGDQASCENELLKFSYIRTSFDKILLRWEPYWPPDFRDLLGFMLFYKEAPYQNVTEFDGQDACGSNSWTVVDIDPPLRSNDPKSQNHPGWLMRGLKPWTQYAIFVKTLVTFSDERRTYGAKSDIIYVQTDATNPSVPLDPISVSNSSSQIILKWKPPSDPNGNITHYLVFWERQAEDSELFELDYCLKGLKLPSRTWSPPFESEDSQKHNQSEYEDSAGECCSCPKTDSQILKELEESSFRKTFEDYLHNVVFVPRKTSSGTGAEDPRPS", "sequence (P06213 763-1382 limits assumed)": "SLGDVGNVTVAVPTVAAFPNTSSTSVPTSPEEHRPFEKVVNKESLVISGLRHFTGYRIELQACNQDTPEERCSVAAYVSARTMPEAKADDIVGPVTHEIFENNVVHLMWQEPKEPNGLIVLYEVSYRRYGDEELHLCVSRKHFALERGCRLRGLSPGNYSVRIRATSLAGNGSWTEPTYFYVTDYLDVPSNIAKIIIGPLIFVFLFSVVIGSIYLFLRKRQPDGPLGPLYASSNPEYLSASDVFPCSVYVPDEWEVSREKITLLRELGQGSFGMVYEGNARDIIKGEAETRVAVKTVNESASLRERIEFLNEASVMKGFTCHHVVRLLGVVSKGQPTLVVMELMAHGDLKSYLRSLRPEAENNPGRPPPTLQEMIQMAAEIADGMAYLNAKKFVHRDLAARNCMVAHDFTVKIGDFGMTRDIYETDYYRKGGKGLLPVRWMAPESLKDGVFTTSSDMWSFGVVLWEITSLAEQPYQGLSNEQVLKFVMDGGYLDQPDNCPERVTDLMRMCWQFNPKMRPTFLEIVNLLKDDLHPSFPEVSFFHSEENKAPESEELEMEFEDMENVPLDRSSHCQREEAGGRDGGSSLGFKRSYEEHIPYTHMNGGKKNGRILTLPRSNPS", "test": "Inhibition of IR"}, "[2]": {"test": "Half-life in mouse liver microsomes", "assay_type": "ADME, Microsome"}, "[3]": {"test": "Half-life in rat liver microsomes", "assay_type": "ADME, Microsome"}, "[4]": {"test": "Half-life in human liver microsomes", "assay_type": "ADME, Microsome"}, "Cytochrome P450 1A2": {"biological_target": "T1, Cytochrome P450 1A2 (Homo sapiens, UniProt P05177)", "T1 sequence (P05177 whole entry)": "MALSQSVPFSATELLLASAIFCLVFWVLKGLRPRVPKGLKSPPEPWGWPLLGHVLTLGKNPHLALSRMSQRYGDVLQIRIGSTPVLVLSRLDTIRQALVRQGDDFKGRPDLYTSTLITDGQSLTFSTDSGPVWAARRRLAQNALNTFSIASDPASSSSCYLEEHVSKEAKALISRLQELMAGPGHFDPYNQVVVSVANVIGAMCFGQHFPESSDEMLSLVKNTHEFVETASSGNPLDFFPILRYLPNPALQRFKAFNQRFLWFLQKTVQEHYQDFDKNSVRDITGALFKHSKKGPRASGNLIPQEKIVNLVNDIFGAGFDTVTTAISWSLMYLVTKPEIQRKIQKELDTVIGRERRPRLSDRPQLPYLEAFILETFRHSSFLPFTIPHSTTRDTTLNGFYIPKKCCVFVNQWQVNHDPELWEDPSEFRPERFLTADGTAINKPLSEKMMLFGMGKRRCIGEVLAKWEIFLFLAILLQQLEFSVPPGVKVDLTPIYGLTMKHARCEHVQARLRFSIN", "test": "Inhibition of CYP1A2", "assay_type": "ADME"}, "Cytochrome P450 2C9": {"biological_target": "Cytochrome P450 2C9 (Homo sapiens, UniProt P11712)", "sequence (P11712 whole entry)": "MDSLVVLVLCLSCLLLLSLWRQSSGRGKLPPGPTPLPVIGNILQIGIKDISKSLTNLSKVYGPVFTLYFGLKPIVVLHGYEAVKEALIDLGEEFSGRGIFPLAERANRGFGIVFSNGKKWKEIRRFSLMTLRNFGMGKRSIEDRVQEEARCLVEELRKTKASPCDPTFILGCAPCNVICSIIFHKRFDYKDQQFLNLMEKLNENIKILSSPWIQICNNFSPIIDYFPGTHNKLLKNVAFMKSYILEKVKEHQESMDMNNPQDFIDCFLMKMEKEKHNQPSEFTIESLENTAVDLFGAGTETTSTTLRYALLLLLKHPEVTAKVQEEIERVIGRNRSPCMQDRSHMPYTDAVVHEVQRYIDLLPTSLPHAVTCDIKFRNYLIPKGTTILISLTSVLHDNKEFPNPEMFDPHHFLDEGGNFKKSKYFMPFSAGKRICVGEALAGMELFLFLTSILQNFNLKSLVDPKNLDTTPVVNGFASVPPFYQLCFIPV", "test": "Inhibition of CYP2C9", "assay_type": "ADME"}, "Cytochrome P450 2C19": {"biological_target": "Cytochrome P450 2C19 (Homo sapiens, UniProt P33261)", "sequence (P33261 whole entry)": "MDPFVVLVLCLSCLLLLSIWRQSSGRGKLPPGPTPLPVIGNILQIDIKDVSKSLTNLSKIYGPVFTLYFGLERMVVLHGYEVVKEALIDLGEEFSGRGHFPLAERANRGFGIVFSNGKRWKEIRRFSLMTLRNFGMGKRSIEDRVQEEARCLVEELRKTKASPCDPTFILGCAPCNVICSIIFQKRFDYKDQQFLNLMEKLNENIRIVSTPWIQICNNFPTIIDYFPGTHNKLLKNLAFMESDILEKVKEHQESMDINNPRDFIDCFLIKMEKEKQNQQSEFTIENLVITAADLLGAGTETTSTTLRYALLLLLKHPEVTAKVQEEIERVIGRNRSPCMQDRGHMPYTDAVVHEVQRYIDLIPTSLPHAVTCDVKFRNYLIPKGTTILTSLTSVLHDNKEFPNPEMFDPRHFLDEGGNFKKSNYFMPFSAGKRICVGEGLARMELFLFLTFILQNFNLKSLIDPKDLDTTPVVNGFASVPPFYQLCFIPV", "test": "Inhibition of CYP2C19", "assay_type": "ADME"}, "Cytochrome P450 2D6": {"biological_target": "Cytochrome P450 2D6 (Homo sapiens, UniProt P10635)", "sequence (P10635 whole entry)": "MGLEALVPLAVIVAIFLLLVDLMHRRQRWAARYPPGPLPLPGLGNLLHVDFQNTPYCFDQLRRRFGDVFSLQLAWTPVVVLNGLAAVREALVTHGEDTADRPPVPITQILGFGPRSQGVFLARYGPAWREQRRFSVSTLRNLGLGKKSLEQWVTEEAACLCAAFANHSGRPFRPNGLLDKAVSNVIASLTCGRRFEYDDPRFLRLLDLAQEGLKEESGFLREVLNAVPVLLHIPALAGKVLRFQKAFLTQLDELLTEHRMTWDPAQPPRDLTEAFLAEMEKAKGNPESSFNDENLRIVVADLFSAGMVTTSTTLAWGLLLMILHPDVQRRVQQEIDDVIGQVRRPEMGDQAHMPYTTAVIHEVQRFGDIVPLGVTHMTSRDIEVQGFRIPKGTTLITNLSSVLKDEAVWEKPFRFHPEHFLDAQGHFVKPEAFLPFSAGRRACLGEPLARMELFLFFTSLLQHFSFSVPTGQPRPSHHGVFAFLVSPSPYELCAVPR", "test": "Inhibition of CYP2D6", "assay_type": "ADME"}, "Cytochrome P450 3A4": {"biological_target": "Cytochrome P450 3A4 (Homo sapiens, UniProt P08684)", "sequence (P08684 whole entry)": "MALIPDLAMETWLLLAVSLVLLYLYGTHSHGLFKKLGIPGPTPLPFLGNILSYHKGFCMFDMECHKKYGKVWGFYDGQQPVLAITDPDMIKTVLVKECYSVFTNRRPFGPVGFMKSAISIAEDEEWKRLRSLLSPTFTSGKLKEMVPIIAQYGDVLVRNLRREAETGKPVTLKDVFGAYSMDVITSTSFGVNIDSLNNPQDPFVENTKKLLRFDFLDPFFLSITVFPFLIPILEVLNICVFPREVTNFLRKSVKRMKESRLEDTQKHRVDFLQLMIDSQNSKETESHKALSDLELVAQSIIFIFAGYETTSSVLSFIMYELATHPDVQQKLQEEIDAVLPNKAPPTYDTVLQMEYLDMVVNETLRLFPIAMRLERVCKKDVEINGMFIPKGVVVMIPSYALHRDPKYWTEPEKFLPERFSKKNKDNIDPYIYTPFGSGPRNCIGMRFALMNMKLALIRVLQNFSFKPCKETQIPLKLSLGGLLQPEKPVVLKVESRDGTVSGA", "test": "Inhibition of CYP3A4", "assay_type": "ADME"}, "[5]": {"test": "Oral bioavailability in Sprague-Dawley rat", "assay_type": "ADME, organism-based", "conditions": "in vivo"}, "[6]": {"test": "Half-life in iv dosed Sprague-Dawley rat", "assay_type": "ADME, organism-based", "conditions": "in vivo"}, "[7]": {"test": "Clearance in iv dosed Sprague-Dawley rat", "assay_type": "ADME, organism-based", "conditions": "in vivo"}}, "data": [{"compound": "CN1CCN(c2ccc(Nc3ncc4ccc(-c5ccccc5N(C)S(C)(=O)=O)n4n3)cc2)CC1", "values": [{"measurement": "IC50", "setting": "[1]", "result": 7, "unit": "nM"}, {"measurement": "IC50", "setting": "Insulin receptor", "result": 366, "unit": "nM"}, {"measurement": "half-life", "setting": "[2]", "result": 30, "unit": "min"}, {"measurement": "half-life", "setting": "[3]", "result": 21, "unit": "min"}, {"measurement": "half-life", "setting": "[4]", "result": 40, "unit": "min"}, {"measurement": "IC50", "setting": "Cytochrome P450 1A2", "result": "> 30000", "unit": "nM"}, {"measurement": "IC50", "setting": "Cytochrome P450 2C9", "result": "> 30000", "unit": "nM"}, {"measurement": "IC50", "setting": "Cytochrome P450 2C19", "result": "> 30000", "unit": "nM"}, {"measurement": "IC50", "setting": "Cytochrome P450 2D6", "result": "> 30000", "unit": "nM"}, {"measurement": "IC50", "setting": "Cytochrome P450 3A4", "result": 14600, "unit": "nM"}]}, {"compound": "COc1cc(Nc2ncc3ccc(-c4ccccc4)n3n2)cc(OC)c1OC", "values": [{"measurement": "IC50", "setting": "[1]", "result": 212, "unit": "nM"}, {"measurement": "IC50", "setting": "Insulin receptor", "result": 295, "unit": "nM"}]}, {"compound": "c1ccc(-c2ccc3cnc(Nc4ccc(N5CCOCC5)cc4)nn23)cc1", "values": [{"measurement": "IC50", "setting": "[1]", "result": "> 2000", "unit": "nM"}, {"measurement": "IC50", "setting": "Insulin receptor", "result": 194, "unit": "nM"}]}, {"compound": "CN1CCN(c2ccc(Nc3ncc4ccc(-c5ccccc5)n4n3)cc2)CC1", "values": [{"measurement": "IC50", "setting": "[1]", "result": 48, "unit": "nM"}, {"measurement": "IC50", "setting": "Insulin receptor", "result": 35, "unit": "nM"}]}, {"compound": "COCCN1CCc2ccc(Nc3ncc4ccc(-c5ccccc5)n4n3)cc2CC1", "values": [{"measurement": "IC50", "setting": "[1]", "result": 38, "unit": "nM"}, {"measurement": "IC50", "setting": "Insulin receptor", "result": 19, "unit": "nM"}]}, {"compound": "COc1ccccc1-c1ccc2cnc(Nc3ccc(N4CCN(C)CC4)cc3)nn12", "values": [{"measurement": "IC50", "setting": "[1]", "result": 20, "unit": "nM"}, {"measurement": "IC50", "setting": "Insulin receptor", "result": 123, "unit": "nM"}, {"measurement": "half-life", "setting": "[2]", "result": 8, "unit": "min"}, {"measurement": "half-life", "setting": "[3]", "result": 14, "unit": "min"}, {"measurement": "half-life", "setting": "[4]", "result": 40, "unit": "min"}, {"measurement": "IC50", "setting": "Cytochrome P450 1A2", "result": "> 30000", "unit": "nM"}, {"measurement": "IC50", "setting": "Cytochrome P450 2C9", "result": "> 30000", "unit": "nM"}, {"measurement": "IC50", "setting": "Cytochrome P450 2C19", "result": "> 30000", "unit": "nM"}, {"measurement": "IC50", "setting": "Cytochrome P450 2D6", "result": "> 30000", "unit": "nM"}, {"measurement": "IC50", "setting": "Cytochrome P450 3A4", "result": 9400, "unit": "nM"}, {"measurement": "bioavailability", "setting": "[5]", "result": 4, "unit": "%"}, {"measurement": "half-life", "setting": "[6]", "result": 30, "unit": "min"}, {"measurement": "clearance", "setting": "[7]", "result": 60, "unit": "mL/min/kg"}]}, {"compound": "CN1CCN(c2ccc(Nc3ncc4ccc(-c5ccccc5C(N)=O)n4n3)cc2)CC1", "values": [{"measurement": "IC50", "setting": "[1]", "result": 726, "unit": "nM"}, {"measurement": "IC50", "setting": "Insulin receptor", "result": 326, "unit": "nM"}]}, {"compound": "CN1CCN(c2ccc(Nc3ncc4ccc(-c5ccccc5S(C)(=O)=O)n4n3)cc2)CC1", "values": [{"measurement": "IC50", "setting": "[1]", "result": 883, "unit": "nM"}, {"measurement": "IC50", "setting": "Insulin receptor", "result": "> 2000", "unit": "nM"}]}]}
